# Assay results as given in ChEMBL document CHEMBL4613209, “Quinolone hybrids and their anti-cancer activities: An overview” (Eur J Med Chem, 2019).
# Experiments:
# [1] = tested on: K562; experiment: Anticancer activity against human K562 cells after 48 to 72 hrs by MTT assay; type: functional, cell-based
# [2] = tested on: Hep 3B2; experiment: Anticancer activity against human Hep3B cells after 48 to 72 hrs by MTT assay; type: functional, cell-based
# [3] = tested on: SMMC-7721; experiment: Cytotoxicity against human SMMC7721 cells assessed as reduction in cell viability by MTT assay; type: functional, cell-based
# [4] = tested on: L1210; experiment: Cytotoxicity against mouse L1210 cells assessed as reduction in cell viability by MTT assay; type: functional, cell-based
# [5] = tested on: HL-60; experiment: Cytotoxicity against human HL60 cells assessed as reduction in cell viability by MTT assay; type: functional, cell-based
# [6] = tested on: CHO; experiment: Cytotoxicity against CHO cells assessed as reduction in cell viability by MTT assay; type: cell-based; conditions: Cricetulus griseus
# [7] = tested on: HeLa; experiment: Antiproliferative activity against human HeLa cells after 72 hrs by MTT assay; type: functional, cell-based
# [8] = tested on: A549; experiment: Antiproliferative activity against human A549 cells after 72 hrs by MTT assay; type: functional, cell-based; conditions: A549, 72 h
# [9] = tested on: HL-60; experiment: Antiproliferative activity against human HL60 cells after 72 hrs by MTT assay; type: functional, cell-based; conditions: HL-60, 72 h
# [10] = tested on: PANC-1; experiment: Potency index, ratio of IC50 for etoposide to IC50 for test compound for anticancer activity against human PANC1 cells after 48 hrs by SRB assay; type: functional
# [11] = tested on: A549; experiment: Potency index, ratio of IC50 for etoposide to IC50 for test compound for anticancer activity against human A549 cells after 48 hrs by SRB assay; type: functional
# [12] = tested on: HCT-116; experiment: Potency index, ratio of IC50 for etoposide to IC50 for test compound for anticancer activity against human HCT116 cells after 48 hrs by SRB assay; type: functional
# [13] = tested on: MCF7-DOX; experiment: Anticancer activity against human MCF7/Dox cells after 48 hrs by SRB assay; type: functional, cell-based
# [14] = tested on: HL-60; experiment: Potency index, ratio of IC50 for etoposide to IC50 for test compound for anticancer activity against human HL60 cells after 48 hrs by SRB assay; type: functional
# [15] = tested on: MCF7; experiment: Anticancer activity against human MCF7 cells after 48 hrs by SRB assay; type: functional, cell-based; conditions: MCF7, 48 h
# [16] = tested on: SK-OV-3; experiment: Anticancer activity against human SKOV3 cells after 48 hrs by SRB assay; type: functional, cell-based; conditions: SK-OV-3, 48 h
# [17] = tested on: PANC-1; experiment: Anticancer activity against human PANC1 cells after 48 hrs by SRB assay; type: functional, cell-based; conditions: PANC-1, 48 h
# [18] = tested on: HeLa; experiment: Anticancer activity against human HeLa cells after 48 hrs by SRB assay; type: functional, cell-based
# [19] = tested on: HL-60; experiment: Anticancer activity against human HL60 cells after 48 hrs by SRB assay; type: functional, cell-based; conditions: HL-60, 48 h
# [20] = tested on: HepG2; experiment: Anticancer activity against human HepG2 cells after 48 hrs by SRB assay; type: functional, cell-based; conditions: HepG2, 48 h
# [21] = tested on: DU-145; experiment: Anticancer activity against human DU145 cells after 48 hrs by SRB assay; type: functional, cell-based; conditions: DU-145, 48 h
# [22] = tested on: A549; experiment: Anticancer activity against human A549 cells after 48 hrs by SRB assay; type: functional, cell-based; conditions: A549, 48 h
# [23] = tested on: HCT-116; experiment: Anticancer activity against human HCT116 cells after 48 hrs by SRB assay; type: functional, cell-based; conditions: HCT-116, 48 h
# [24] = tested on: HeLa; experiment: Potency index, ratio of IC50 for etoposide to IC50 for test compound for anticancer activity against human HeLa cells after 48 hrs by SRB assay; type: functional
# [25] = tested on: DU-145; experiment: Potency index, ratio of IC50 for etoposide to IC50 for test compound for anticancer activity against human DU145 cells after 48 hrs by SRB assay; type: functional
# [26] = tested on: SK-OV-3; experiment: Potency index, ratio of IC50 for etoposide to IC50 for test compound for anticancer activity against human SKOV3 cells after 48 hrs by SRB assay; type: functional
# [27] = tested on: MCF7; experiment: Potency index, ratio of IC50 for etoposide to IC50 for test compound for anticancer activity against human MCF7 cells after 48 hrs by SRB assay; type: functional
# [28] = tested on: MCF7-DOX; experiment: Potency index, ratio of IC50 for etoposide to IC50 for test compound for anticancer activity against human MCF7/Dox cells after 48 hrs by SRB assay; type: functional
# [29] = Cytotoxicity against human MGC832 cells assessed as reduction in cell viability after 48 hrs by MTT assay; type: functional, cell-based
# [30] = tested on: HeLa; experiment: Cytotoxicity against human HeLa cells assessed as reduction in cell viability after 48 hrs by MTT assay; type: functional, cell-based
# [31] = tested on: MCF7; experiment: Cytotoxicity against human MCF7 cells assessed as reduction in cell viability after 48 hrs by MTT assay; type: functional, cell-based; conditions: MCF7, 48 h
# [32] = tested on: T47D; experiment: Cytotoxicity against human T47D cells assessed as reduction in cell viability after 48 hrs by MTT assay; type: functional, cell-based
# [33] = tested on: MDA-MB-231; experiment: Cytotoxicity against human MDA-MB-231 cells assessed as reduction in cell viability after 48 hrs by MTT assay; type: functional, cell-based; conditions: MDA-MB-231, 48 h
# [34] = tested on: MCF7; experiment: Cytotoxicity against human MCF7 cells assessed as reduction in cell viability after 72 hrs by MTT assay; type: functional, cell-based; conditions: MCF7, 72 h
# [35] = Toxicity in mouse xenografted with human CX-1 cells; conditions: in vivo
# [36] = Toxicity in mouse xenografted with human MB-9812 cells
# [37] = tested on: HepG2; experiment: Cytotoxicity against human HepG2 cells assessed as reduction in cell viability after 48 hrs by MTT assay; type: functional, cell-based; conditions: HepG2, 48 h
smiles,measurement,setting,value
O=c1c(/C(CCN2CCOCC2)=N/Nc2ccccc2)c(O)c2ccccc2n1-c1ccccc1,IC50,[1],< 20 µg/mL
same,IC50,[2],< 20 µg/mL
COc1ccc(-c2nnc(CSc3nnc(-c4cn(C5CC5)c5cc(N6CCN(C)CC6)c(F)cc5c4=O)o3)o2)cc1,IC50,[3],1.1 to 2.8 µM
same,IC50,[4],1.1 to 2.8 µM
same,IC50,[5],1.1 to 2.8 µM
same,IC50,[6],1.1 to 2.8 µM
N=C(NS(=O)(=O)c1cccc(C(F)(F)F)c1)N1CCN(c2cc3c(cc2F)c(=O)c(C(=O)O)cn3-c2ccc(F)cc2F)CC1,IC50,[7],0.01 µM
same,IC50,[8],0.028 µM
same,IC50,[9],0.018 µM
CC1(CN)CN(c2ccc3c(=O)c(C(=O)O)cn(-c4nccs4)c3n2)C/C1=N/OCc1ccccc1 (stereo not given),Ratio IC50,[10],>=1.3 - 100
same,Ratio IC50,[11],>=1.3 - 100
same,Ratio IC50,[12],>=1.3 - 100
same,IC50,[13],0.5 to 6.25 µM
same,Ratio IC50,[14],>=1.3 - 100
same,IC50,[15],0.5 to 6.25 µM
same,IC50,[16],0.5 to 6.25 µM
same,IC50,[17],0.5 to 6.25 µM
same,IC50,[18],0.5 to 6.25 µM
same,IC50,[19],0.5 to 6.25 µM
same,IC50,[20],0.5 to 6.25 µM
same,IC50,[21],0.5 to 6.25 µM
same,IC50,[22],0.5 to 6.25 µM
same,IC50,[23],0.5 to 6.25 µM
same,Ratio IC50,[24],>=1.3 - 100
same,Ratio IC50,[25],>=1.3 - 100
same,Ratio IC50,[26],>=1.3 - 100
same,Ratio IC50,[27],>=1.3 - 100
same,Ratio IC50,[28],>=1.3 - 100
COC(=O)c1c(-c2ccc[nH]2)[nH]c2ccccc2c1=O,IC50,[29],0.013 µM
same,IC50,[30],0.11 µM
C/C(=N\Nc1ccccc1)c1c(O)c2ccccc2n(-c2ccccc2)c1=O,IC50,[1],< 10 µg/mL
same,IC50,[2],< 10 µg/mL
COc1cc([C@@H]2c3cc4c(cc3[C@@H](O[C@@H]3O[C@@H]5CO[C@@H](C)O[C@H]5[C@H](O)[C@H]3O)[C@H]3COC(=O)[C@H]23)OCO4)cc(OC)c1O [ETOPOSIDE],IC50,[31],11.8 to 15.7 µM
same,IC50,[32],11.8 to 15.7 µM
same,IC50,[33],11.8 to 15.7 µM
same,IC50,[34],2.91 to 50 µM
same,IC50,[13],2.91 to 50 µM
same,IC50,[15],2.91 to 50 µM
same,IC50,[16],2.91 to 50 µM
same,IC50,[17],2.91 to 50 µM
same,IC50,[18],2.91 to 50 µM
same,IC50,[19],2.91 to 50 µM
same,IC50,[20],2.91 to 50 µM
same,IC50,[21],2.91 to 50 µM
same,IC50,[22],2.91 to 50 µM
same,IC50,[23],2.91 to 50 µM
same,LD50,[35],64 mg/kg
same,LD50,[36],64 mg/kg
O=C(O)c1c(-c2ccc[nH]2)[nH]c2ccccc2c1=O [PENICINOLINE],IC50,[37],0.007 µM
same,IC50,[29],0.091 µM
